Measured values from US6020334A, “Piperazinones, their production and use” (Takeda Chemical Industries, Ltd., priority 1995, dated 2000).

Test system: platelet aggregation by ADP
Assay: Platelet aggregation in vitro (inhibition of ADP-induced aggregation of guinea pig PRP, Born's method)
Format: cell-based, guinea pigs
Conditions: Cavia porcellus, ADP 0.6-1 μM, 37° C.
Description: Determination of Platelet Aggregation in Vitro
Blood was collected from abdominal aorta of guinea pigs under anesthesia with pentobarbital (20 mg/kg, i.p.) using sodium citrate as an anticoagulant (final concentration: 0.315%). The sodium citrate--supplemented blood was centrifuged at 950 rpm for 10 minutes and 2,000 rpm for 10 minutes respectively at room temperature to obtain platelet rich plasma (PRP) and platelet poor plasma (PPP). The number of platelet was counted an automatic platelet counter (Sysmex E2500, Toaiyo-denshi). PRP was diluted with PPP to adjust the number of platelets to be 500,000/μl. Platelet aggregation was measured as follows, in accordance with Born's method (Nature 194: 927, 1962), using an 8-channel aggregometer (NBS HEMA TRACER VI, Niko Bioscience Inc.): The PRP (250 μl) was incubated at 37° C. for 2 minutes, to which was then added 25 μl of a test drug solution. Two minutes later, 25 μl of an agent (ADP) for causing agglutination. The effect of the test drug was shown by the inhibition rate of the maximum aggregation rate of the test group against that of the control group. ADP was used in the minimum concentration (0.6-1 μM) capable of obtaining maximum aggregation.

**Q.** Which IC50 does the source give for `N=C(N)c1ccc(C(=O)NCC(=O)N2CCN(CC(=O)O)C(=O)[C@@H]2CCCN)cc1` [compound 1] here?
**A.** 0.52 µM

**Q.** For `N=C(N)c1ccc(C(=O)NCCC[C@H]2C(=O)N(CC(=O)O)CCN2C(=O)CNC(=O)c2ccc(C(=N)N)cc2)cc1` [compound 2], which IC50 is on record?
**A.** 0.037 µM

**Q.** With `COc1ccc(C[C@H](NC(=O)c2ccc(C(=N)N)cc2)C(=O)N2CCN(CC(=O)O)C(=O)[C@@H]2CCCN)cc1` [compound 5] as the molecule, how does the IC50 read?
**A.** 0.016 µM

**Q.** Which IC50 does the source give for `COc1ccc(C[C@H](NC(=O)c2ccc(C(=N)N)cc2)C(=O)N2CCN(CC(=O)O)C(=O)[C@@H]2CCCNC(=O)c2ccc(C(=N)N)cc2)cc1` [compound 6] here?
**A.** 0.02 µM

**Q.** For `COc1ccc(C[C@H](NC(=O)c2ccc(C(=N)N)cc2)C(=O)N2CCN(CC(=O)O)C(=O)[C@@H]2CCCCN)cc1` [compound 7], which IC50 is on record?
**A.** 0.019 µM

**Q.** With `COc1ccc(C[C@H](NC(=O)c2ccc(C(=N)N)cc2)C(=O)N2CCN(CC(=O)O)C(=O)[C@@H]2CCCCNC(=O)c2ccc(C(=N)N)cc2)cc1` [compound 8] as the molecule, how does the IC50 read?
**A.** 0.012 µM

**Q.** Which IC50 does the source give for `N=C(N)c1ccc(C(=O)NCC(=O)N2CCN(CC(=O)O)C(=O)[C@@H]2CCCNC(=O)CCCCCN)cc1` [compound 9] here?
**A.** 0.18 µM

**Q.** For `N=C(N)c1ccc(C(=O)NCC(=O)N2CCN(CC(=O)O)C(=O)[C@@H]2CCCNC(=O)CCCCN)cc1` [compound 10], which IC50 is on record?
**A.** 0.2 µM

**Q.** For `N=C(N)c1ccc(C(=O)NCC(=O)N2CCN(CC(=O)O)C(=O)[C@@H]2CCCNC(=O)CCCN)cc1` [compound 11], which IC50 is on record?
**A.** 0.23 µM

**Q.** Which IC50 does the source give for `COc1ccc(C[C@H](NC(=O)c2ccc(C(=N)N)cc2)C(=O)N2CCN(CC(=O)O)C(=O)[C@@H]2CCCCNC(=N)N)cc1` [compound 12] here?
**A.** 0.025 µM

**Q.** Which IC50 does the source give for `N=C(N)NCCCC(=O)NCCC[C@H]1C(=O)N(CC(=O)O)CCN1C(=O)CNC(=O)c1ccc(C(=N)N)cc1` [compound 13] here?
**A.** 0.11 µM

**Q.** Which IC50 does the source give for `N=C(N)Nc1ccc(C(=O)NCCC[C@H]2C(=O)N(CC(=O)O)CCN2C(=O)CNC(=O)c2ccc(NC(=N)N)cc2)cc1` [compound 15] here?
**A.** 0.051 µM

**Q.** For `N=C(N)Nc1ccc(C(=O)NCC[C@H]2C(=O)N(CC(=O)O)CCN2C(=O)CNC(=O)c2ccc(C(=N)N)cc2)cc1` [compound 16], which IC50 is on record?
**A.** 0.044 µM

**Q.** For `N=C(N)c1ccc(C(=O)NCC(=O)N2CCN(CC(=O)O)C(=O)[C@@H]2CN)cc1` [compound 17], which IC50 is on record?
**A.** 0.24 µM

**Q.** Which IC50 does the source give for `N=C(N)c1ccc(C(=O)NCC(=O)N2CCN(CC(=O)O)C(=O)[C@@H]2CNC(=O)c2ccc(C(=N)N)cc2)cc1` [compound 18] here?
**A.** 0.13 µM

**Q.** For `N=C(N)c1ccc(C(=O)NCC[C@H]2C(=O)N(CC(=O)O)CCN2C(=O)CNC(=O)c2ccc(C(=N)N)cc2)cc1` [compound 19], which IC50 is on record?
**A.** 0.18 µM

**Q.** With `N=C(N)c1ccc(C(=O)NCCC[C@@H]2C(=O)N(CC(=O)O)CCN2C(=O)CNC(=O)c2ccc(C(=N)N)cc2)cc1` [compound 22] as the molecule, how does the IC50 read?
**A.** 3.8 µM

**Q.** Which IC50 does the source give for `N=C(N)Nc1ccc(C(=O)NCCC[C@H]2C(=O)N(CC(=O)O)CCN2C(=O)CNC(=O)c2ccc(C(=N)N)cc2)cc1` [compound 23] here?
**A.** 0.017 µM

**Q.** For `N=C(N)c1ccc(NC(=O)CC[C@H]2C(=O)N(CC(=O)O)CCN2C(=O)CNC(=O)c2ccc(C(=N)N)cc2)cc1` [compound 24], which IC50 is on record?
**A.** 0.25 µM

**Q.** Which IC50 does the source give for `N=C(N)Cc1ccc(C(=O)NC[C@H]2C(=O)N(CC(=O)O)CCN2C(=O)CNC(=O)c2ccc(C(=N)N)cc2)cc1` [compound 25] here?
**A.** 0.054 µM

**Q.** Which IC50 does the source give for `N=C(N)NCc1ccc(C(=O)NC[C@H]2C(=O)N(CC(=O)O)CCN2C(=O)CNC(=O)c2ccc(C(=N)N)cc2)cc1` [compound 26] here?
**A.** 0.084 µM

**Q.** With `COc1ccc(C[C@H](NC(=O)c2ccc(C(=N)N)cc2)C(=O)N2CCN(CC(=O)O)C(=O)[C@@H]2CCCNC(=O)CCCCCN)cc1` [compound 27] as the molecule, how does the IC50 read?
**A.** 0.018 µM

**Q.** Which IC50 does the source give for `COc1ccc(C[C@H](NC(=O)c2ccc(C(=N)N)cc2)C(=O)N2CCN(CC(=O)O)C(=O)[C@@H]2CCCCNC(=O)CN)cc1` [compound 28] here?
**A.** 0.019 µM

**Q.** For `COC(=O)ON=C(N)c1ccc(C(=O)NCCC[C@H]2C(=O)N(CC(=O)O)CCN2C(=O)CNC(=O)c2ccc(C(N)=NOC(=O)OC)cc2)cc1` [compound 30], which IC50 is on record?
**A.** 19 µM

**Q.** For `COC(=O)ON=C(N)c1ccc(C(=O)NCCC[C@H]2C(=O)N(CC(=O)O)CCN2C(=O)CNC(=O)c2ccc(C(=N)N)cc2)cc1` [compound 31], which IC50 is on record?
**A.** 0.19 µM

**Q.** For `N=C(N)c1ccc(C(=O)NCCC[C@H]2C(=O)N(CC(=O)O)CCN2C(=O)CNC(=O)c2ccc(CCN)cc2)cc1` [compound 32], which IC50 is on record?
**A.** 0.053 µM

Test system: not listed separately
Assay: Bleeding time in guinea pigs (continuous intravenous infusion, Simplate R incision)
Format: in vivo
Conditions: 2 μg/kg/min, continuous i.v. infusion for 90 minutes
Description: (§1) Bleeding Time in Guinea Pigs and Determination of Ex Vivo Platelet Aggregation Inhibitory Action
(§2) Male Hartley guinea pigs (body weight: about 400 g) were employed. These animals were intravenously infused continuously, under anesthesia with pentobarbital, with a physiological saline solution or receptor-antagonistdissolved in the solution at a dose of 10 μl/kg/min.
After the continuous infusion for 90 minutes, the thigh of each animal was applied with a rubber cuff and charged with 40 mmHg, then given an incised sound with Simplate R (Organon Teknika). Thereafter, at 30 sec. each interval, blood was absorbed into a filter paper. The time until no more blood was absorbed into the filter paper was measured. The bleeding time of normal five guinea pigs was about 276 sec.

**Q.** With `N=C(N)c1ccc(C(=O)NCCC[C@H]2C(=O)N(CC(=O)O)CCN2C(=O)CNC(=O)c2ccc(C(=N)N)cc2)cc1` [compound 2] as the molecule, how does the Bleeding time read?
**A.** 308 ± 33 s

Same assay, conditions: 3 μg/kg/min, continuous i.v. infusion for 90 minutes

**Q.** For `N=C(N)Nc1ccc(C(=O)NCCC[C@H]2C(=O)N(CC(=O)O)CCN2C(=O)CNC(=O)c2ccc(NC(=N)N)cc2)cc1` [compound 15], which Bleeding time is on record?
**A.** 250 ± 26 s

Test system: ex vivo platelet aggregation
Assay: Ex vivo platelet aggregation inhibitory action (PRP of infused guinea pigs, ADP)
Format: in vivo
Conditions: 2 μg/kg/min, continuous i.v. infusion for 90 minutes, ADP 0.5 to 1 μM
Description: as §1, §2
After 90 minutes of the continuous infusion, blood was collected from abdominal aorta using sodium citrate (whole blood:3.15% citric acid solution=9:1 by volume). […]
Platelet aggregation was measured by using an 8-channel photo-extinction type platelet aggregometer (NBS/HEMA TRACER 801, Niko Bioscience). […] The PRP was set in the aggregometer and incubated for two minutes at 37° C., to which was added 20 μl of ADP (0.5 to 1 μM), and the changes of transmittance were recorded. The difference of PRP and PPP in photo-extinction was assumed 100%, and, with the maximum photo-extinction rates, the maximum aggregation rates (%) were determined. The effects of the drugs were determined by comparing the maximum aggregation rates (%) of animals continuously infused with a physiological saline solution with those of animals continuously infused with receptor antagonist.

**Q.** With `N=C(N)c1ccc(C(=O)NCCC[C@H]2C(=O)N(CC(=O)O)CCN2C(=O)CNC(=O)c2ccc(C(=N)N)cc2)cc1` [compound 2] as the molecule, how does the “Inhibitory rate (ex vivo platelet aggregation inhibition)” value read?
**A.** 100%

Same assay, conditions: 3 μg/kg/min, continuous i.v. infusion for 90 minutes, ADP 0.5 to 1 μM

**Q.** For `N=C(N)Nc1ccc(C(=O)NCCC[C@H]2C(=O)N(CC(=O)O)CCN2C(=O)CNC(=O)c2ccc(NC(=N)N)cc2)cc1` [compound 15], which “Inhibitory rate (ex vivo platelet aggregation inhibition)” value is on record?
**A.** 100%
